3 molecules from EP4700025A1, “AMIDE COMPOUND, PHARMACEUTICAL COMPOSITION COMPRISING SAME, AND USE THEREOF” (Suzhou Genhouse Bio Co., Ltd., priority 2023, dated 2024) can be followed below.

One may read the IC50 as the point on the concentration scale where inhibition reaches its midpoint. Broadly, the EC50 is the concentration that produces a half-maximal response. Higher therefore signals a less potent agent.

Where two headings read alike, the source gives them in different places.

The target in one data set is T1, CYP450 2C19 (Homo sapiens, UniProt P33261).
T1 construct: from tissue; host or cells: human liver microsomes
Nature of the data set: Inhibition of human liver microsome CYP450 enzyme 2C19. It counts as in vitro ADME. The procedure:
(§1) 100 mM K-Buffer: 9.5 mL of stock solution A was mixed with 40.5 mL of stock solution B, the total volume was adjusted to 500 mL with ultrapure water, and the buffer was titrated to pH 7.4 with KOH or H3PO4. • Starting material A (1 M potassium dihydrogen phosphate): 136.5 g of potassium dihydrogen phosphate in 1 L of water; • Stock solution B ([…]): 174.2 g of potassium dihydrogen phosphate in 1 L of water.
(§2) The test substance powder was prepared into a stock solution at a certain concentration with DMSO or another organic solvent, which was then further diluted with a suitable organic solvent.
(§3) The liver microsomal in vitro incubation system for the CYP450 enzyme metabolism phenotype study was a biochemical reaction of the prepared liver microsomes supplemented with a redox coenzyme and an enzyme-specific selective inhibitor under simulated physiological temperature and physiological environment conditions.
(§4) The concentration of the parent drug or a metabolite thereof in the incubation solution was determined by LC-MS/MS. and the IC50 value was calculated.
For orientation: Liver microsomes are a subcellular fraction often used to study metabolism.

Another data set deals with HCT-116-MTAP^-/- cells. Nature of the data set: Pharmacodynamic study, HCT-116-MTAP^-/- subcutaneous xenograft. The note with it: HCT-116-MTAP^-/- xenograft. It counts as in vivo, mouse. As for the experimental part: (§5) Human colon cancer HCT-116-MTAP^-1- cells were cultured in monolayer in vitro using the McCoy 5A culture medium (HyClone) containing 10% fetal bovine serum (BI) and 1% penicillin and streptomycin (Beyotime) in an incubator at 37 °C with 5% CO2. The cells were digested with trypsin 2 to 3 times weekly for passaging. When the saturation degree of the cells was 80% to 90%, the cells were collected, counted, and inoculated. 5 × 10^6 (0.1 mL) HCT-116-MTAP^-/- cells were subcutaneously inoculated on the right back of each mouse. On about day 15 after inoculation of the cells, the mean tumor volume reached 172 mm^3. The mice were randomly grouped for administration (the animals were divided into an administration group and a control group, with 6 animals in each group). The day of grouping was designated as d0, and intragastric administration was started on d1. The administration was performed once daily at an administration volume of 10 mL/kg. Vehicle control was administered to the control group. The tumor volume was measured 2 to 3 times weekly, and meanwhile, the mice were weighed and the data were recorded; daily observations were made to record the body surface signs of the mice. After the experiment was completed, the tumors were collected, weighed, and photographed for recording.
(§6) Calculation formula for tumor volume: Tumor volume (mm^3) = 1/2 × (a×b^2) [formula] (note: a represents long diameter and b represents short diameter) [formula]

The target in the next data set is T2, CYP450 2D6 (Homo sapiens, UniProt P10635).
T2 construct: from tissue; host or cells: human liver microsomes
Nature of the data set: Inhibition of human liver microsome CYP450 enzyme 2D6. Format: in vitro ADME. The procedure: as §1, §2, §3, §4

Data set [1] deals with SDMA. Nature of the data set: SDMA Inhibition Assay in HCT-116 cells. Format: cell-based. To be noted: Homo sapiens, HCT-116, 96 hours.
Another data set concerns the target T3, CYP450 2C9 (Homo sapiens, UniProt P11712).
T3 construct: from tissue; host or cells: human liver microsomes
Put plainly: Inhibition of human liver microsome CYP450 enzyme 2C9. Format: in vitro ADME. The procedure: as §1, §2, §3, §4

Data set [2] relates to SDMA. Put plainly: SDMA Inhibition Assay in HCT-116-MTAP^-/- cells. It counts as cell-based. The note with it: Homo sapiens, 96 hours.
For another data set, the target named is T4, CYP450 1A2 (Homo sapiens, UniProt P05177).
T4 construct: from tissue; host or cells: human liver microsomes
T4 sequence (P05177 1-516): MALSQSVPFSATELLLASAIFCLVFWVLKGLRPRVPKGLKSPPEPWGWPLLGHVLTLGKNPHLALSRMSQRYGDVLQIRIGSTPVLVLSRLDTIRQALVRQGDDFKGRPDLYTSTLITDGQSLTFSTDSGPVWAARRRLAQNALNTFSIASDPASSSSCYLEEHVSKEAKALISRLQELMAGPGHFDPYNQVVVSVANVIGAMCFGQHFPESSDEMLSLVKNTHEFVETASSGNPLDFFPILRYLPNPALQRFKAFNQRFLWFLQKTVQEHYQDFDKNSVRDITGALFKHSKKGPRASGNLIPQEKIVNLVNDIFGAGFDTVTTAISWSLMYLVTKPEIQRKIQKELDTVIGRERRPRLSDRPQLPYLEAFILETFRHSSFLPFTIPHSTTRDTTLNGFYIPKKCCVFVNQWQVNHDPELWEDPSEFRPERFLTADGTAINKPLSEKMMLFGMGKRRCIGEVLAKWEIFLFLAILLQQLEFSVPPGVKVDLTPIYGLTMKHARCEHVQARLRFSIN
Put plainly: Inhibition of human liver microsome CYP450 enzyme 1A2. Format: in vitro ADME. The procedure:
as §1, §2, §3, §4

The subject of the next data set is NCI-H838 cells. Put plainly: Pharmacodynamic study, NCI-H838 subcutaneous xenograft. It counts as in vivo, mouse. As for the experimental part:
as §5, with “non-small cell lung” for “colon”, “NCI-H838” for “HCT-116-MTAP^-1-”, “NCI-H838” for “HCT-116-MTAP^-/-”, “29” for “15”, “156” for “172”
as §6

T2 sequence (P10635 whole entry): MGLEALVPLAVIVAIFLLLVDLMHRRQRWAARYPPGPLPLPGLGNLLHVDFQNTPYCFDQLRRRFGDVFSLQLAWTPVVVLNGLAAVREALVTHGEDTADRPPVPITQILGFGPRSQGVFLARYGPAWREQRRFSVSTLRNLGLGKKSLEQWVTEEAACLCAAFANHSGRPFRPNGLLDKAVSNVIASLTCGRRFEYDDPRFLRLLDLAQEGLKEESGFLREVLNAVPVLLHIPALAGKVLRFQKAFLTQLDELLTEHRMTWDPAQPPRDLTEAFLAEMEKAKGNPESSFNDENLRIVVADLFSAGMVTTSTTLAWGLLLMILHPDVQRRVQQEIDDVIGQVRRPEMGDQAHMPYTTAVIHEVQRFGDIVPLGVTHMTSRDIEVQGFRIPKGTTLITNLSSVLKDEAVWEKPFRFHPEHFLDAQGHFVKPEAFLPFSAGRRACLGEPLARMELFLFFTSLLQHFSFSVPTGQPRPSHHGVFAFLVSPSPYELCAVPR
T3 sequence (P11712 whole entry): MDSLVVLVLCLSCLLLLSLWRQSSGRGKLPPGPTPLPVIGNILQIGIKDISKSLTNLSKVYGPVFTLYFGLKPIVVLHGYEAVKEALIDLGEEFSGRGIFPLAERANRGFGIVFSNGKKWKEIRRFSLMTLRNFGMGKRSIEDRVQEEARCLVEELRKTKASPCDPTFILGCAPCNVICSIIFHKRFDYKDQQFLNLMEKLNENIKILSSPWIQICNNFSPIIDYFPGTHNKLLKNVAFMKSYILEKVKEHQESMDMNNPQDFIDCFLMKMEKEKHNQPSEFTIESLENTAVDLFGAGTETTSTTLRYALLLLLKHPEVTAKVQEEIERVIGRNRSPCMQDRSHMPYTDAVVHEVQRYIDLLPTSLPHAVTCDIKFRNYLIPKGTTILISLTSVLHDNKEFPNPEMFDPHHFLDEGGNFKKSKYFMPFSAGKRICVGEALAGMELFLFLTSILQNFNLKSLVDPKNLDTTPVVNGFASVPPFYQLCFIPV
T1 sequence (P33261 whole entry): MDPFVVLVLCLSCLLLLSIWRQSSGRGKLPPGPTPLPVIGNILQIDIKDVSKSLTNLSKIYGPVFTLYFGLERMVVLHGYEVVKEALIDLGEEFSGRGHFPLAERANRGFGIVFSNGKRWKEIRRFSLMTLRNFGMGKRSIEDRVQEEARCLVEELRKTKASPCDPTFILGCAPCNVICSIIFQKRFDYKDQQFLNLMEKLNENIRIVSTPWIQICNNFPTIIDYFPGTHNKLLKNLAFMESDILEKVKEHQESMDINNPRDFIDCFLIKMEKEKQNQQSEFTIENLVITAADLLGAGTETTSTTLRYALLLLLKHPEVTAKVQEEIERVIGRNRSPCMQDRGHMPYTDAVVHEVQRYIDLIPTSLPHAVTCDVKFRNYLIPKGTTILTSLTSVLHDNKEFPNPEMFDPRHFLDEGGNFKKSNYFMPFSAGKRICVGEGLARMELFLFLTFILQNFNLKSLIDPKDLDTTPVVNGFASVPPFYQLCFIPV

`Cn1ncc2c(N)nc3cc(F)c(C(=O)N4CCOC[C@@H]4c4ccc5c(c4)OC(F)(F)O5)cc3c21` [Example I-7]: the 50% inhibitory concentration (IC50) at CYP450 2C19 (human, microsomes, pH 7.4) was above 10000 nM; at CYP450 2D6 (human, microsomes, pH 7.4) it was above 10000 nM; against CYP450 2C9 (human, microsomes, pH 7.4) it was above 10000 nM; at CYP450 1A2 (human, microsomes, pH 7.4), above 10000 nM. Further, the “Day 28 TGI” value is recorded as 84% with HCT-116-MTAP^-/- cells (10 mpk PO QD) and 91% with HCT-116-MTAP^-/- cells (30 mpk PO QD). Besides, the values for the EC50 in the data set on SDMA [1] and with SDMA [2] were 181 nM and 2 nM, respectively.

Regarding `Cn1ncc2c(N)nc3cc(F)c(C(=O)N(Cc4ccc5c(c4)OC(F)(F)O5)C4CC4)cc3c21` [Example I-16], the IC50 is above 10000 nM at CYP450 2C19 (human liver microsomes, 2C19, read-out: IC50); above 10000 nM on CYP450 2D6 (human liver microsomes, 2D6, read-out: IC50); above 10000 nM at CYP450 2C9 (human liver microsomes, 2C9, read-out: IC50); above 10000 nM on CYP450 1A2 (human liver microsomes, 1A2, read-out: IC50). In addition, the “Day 28 TGI” value was determined as 75% in the data set on HCT-116-MTAP^-/- cells (10 mpk PO QD) and 92% in the data set on HCT-116-MTAP^-/- cells (30 mpk PO QD). Besides, the EC50 with SDMA [1] was found to be 201 nM; in the data set on SDMA [2], 1.2 nM. Also, the “Day 31 TGI” value in the data set with NCI-H838 cells (10 mpk PO QD) was found to be 97%.

As to `Cn1ncc2c(N)nc3cnc(C(=O)N4CCOC[C@@H]4c4ccc5c(c4)OC(F)(F)O5)cc3c21` [Example I-38], the EC50 in the data set with SDMA [1] was found to be 147 nM; with SDMA [2], 1.5 nM. Besides, the “Day 31 TGI” value came out at 75% in the data set with NCI-H838 cells (10 mpk PO QD), 105% in the data set on NCI-H838 cells (30 mpk PO QD) and 107% with NCI-H838 cells (100 mpk PO QD).
